The text below walks through data of patent publication EP3130589A1, “HETEROCYCLIC AZA COMPOUNDS” (Grünenthal GmbH, priority 2015, dated 2017).

The target in the test is T1, TRPV1 human (Homo sapiens, UniProt Q8NER1).
T1 construct: expressed in transfected cells; host or cells: CHO K1 cells
Kind of test: Functional testing on the vanilloid receptor 1 (VR1/TRPV1): FLIPR Ca2+ influx assay, inhibition of capsaicin (CAP) stimulation. It is filed as cell-based. The conditions noted are these: for Ki: functional (f) FLIPR assay, capsaicin (CAP) 100 nM, Ki from IC50 by Cheng-Prusoff equation; for inhibition at 5 µM: @ 5 µM compound. Here is the method:
Furthermore, preference may be given to compounds according to the invention that cause a 50 per cent displacement of capsaicin, which is present at a concentration of 100 nM, in a FLIPR assay with CHO K1 cells which were transfected with the human VR1 gene at a concentration of less than 6,000 nM, preferably less than 5,000 nM, more preferably less that 3,000 nM or less than 1,000 nM and particularly preferably less than 300 nM, most particularly preferably less than 100 nM, even more preferably less than 75 nM, additionally preferably less than 50 nM, most preferably less than 10 nM.
In the process, the Ca^2+ influx is quantified in the FLIPR assay with the aid of a Ca^2+-sensitive dye (type Fluo-4, Molecular Probes Europe BV, Leiden, the Netherlands) in a fluorescent imaging plate reader (FLIPR, Molecular Devices, Sunnyvale, USA), as described hereinafter.
Functional testing carried out on the vanilloid receptor 1 (VRI/TRPV1 receptor) […]
The number of cells in the suspension is set to 3 x 10^5 per mL and 150 µL of this suspension are in each case introduced into a recess in the cell culture plates coated as described hereinbefore. In the incubator the plates are left for two to three days at 37°C, 5 vol.-% of CO2 and 95 % relative humidity. Subsequently, the cells are loaded with 2 µM of Fluo-4 and 0.01 vol.-% of Pluronic F127 (Molecular Probes Europe BV, Leiden, the Netherlands) in HBSS buffer for 30 min at 37°C, washed 3 times with HBSS buffer and after further incubation for 15 min at RT used for Ca^2+ measurement in a FLIPR assay. The Ca^2+-dependent fluorescence is in this case measured before and after the addition of substances (λex = 488 nm, λem = 540 nm). Quantification is carried out by measuring the highest fluorescence intensity (FC, fluorescence counts) over time.
The FLIPR protocol consists of 2 substance additions. First the compounds to be tested (10 µM) are pipetted onto the cells and the Ca^2+ influx is compared with the control (capsaicin 10 µM). This provides the result in % activation based on the Ca^2+ signal after the addition of 10 µM of capsaicin (CP). After 5 min incubation, 100 nM of capsaicin are applied and the Ca^2+ influx is also determined. Desensitising agonists and antagonists lead to suppression of the Ca^2+ influx. The % inhibition is calculated compared to the maximum achievable inhibition with 10 µM of capsazepine.
Triple analyses (n=3) are carried out and repeated in at least 3 independent experiments (N=4). Starting from the percentage displacement caused by different concentrations of the compounds to be tested of general formula I, IC50 inhibitory concentrations which cause a 50% displacement of capsaicin were calculated.
Ki values for the test substances were obtained by conversion by means of the Cheng-Prusoff equation (Cheng, Prusoff; Biochem. Pharmacol. 22, 3099-3108, 1973).

Where [1] appears, read: capsaicin (CAP) stimulus, relative to maximum achievable inhibition with 10 µM capsazepine, read-out: TRPV1 human (f) CAP, inhibition (in %).

SMILES strings stand for the structures.

T1 sequence (Q8NER1 whole entry): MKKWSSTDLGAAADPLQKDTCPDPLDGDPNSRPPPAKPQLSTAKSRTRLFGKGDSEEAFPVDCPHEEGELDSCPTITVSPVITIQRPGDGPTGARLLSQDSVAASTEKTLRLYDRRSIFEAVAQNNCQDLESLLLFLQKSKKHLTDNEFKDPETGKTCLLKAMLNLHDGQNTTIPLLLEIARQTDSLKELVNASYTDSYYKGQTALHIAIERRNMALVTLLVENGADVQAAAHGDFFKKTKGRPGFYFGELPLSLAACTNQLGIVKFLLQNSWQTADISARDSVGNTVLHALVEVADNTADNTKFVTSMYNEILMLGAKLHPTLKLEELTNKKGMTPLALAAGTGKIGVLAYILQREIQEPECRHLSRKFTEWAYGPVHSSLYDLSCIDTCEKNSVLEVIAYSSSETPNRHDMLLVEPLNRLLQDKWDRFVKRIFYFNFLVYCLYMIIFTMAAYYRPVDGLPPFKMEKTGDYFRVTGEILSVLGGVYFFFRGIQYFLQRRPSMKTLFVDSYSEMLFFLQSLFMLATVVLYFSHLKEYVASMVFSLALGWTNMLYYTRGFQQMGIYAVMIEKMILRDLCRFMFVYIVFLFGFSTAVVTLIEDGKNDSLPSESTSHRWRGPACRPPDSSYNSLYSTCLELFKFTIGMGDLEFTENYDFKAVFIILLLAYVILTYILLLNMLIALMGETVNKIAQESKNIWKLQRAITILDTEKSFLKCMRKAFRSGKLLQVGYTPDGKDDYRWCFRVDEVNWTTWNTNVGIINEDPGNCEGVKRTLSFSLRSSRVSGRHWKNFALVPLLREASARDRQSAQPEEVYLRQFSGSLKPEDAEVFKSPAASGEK

On to `Cc1cccc(-c2nc(C(F)(F)F)ccc2CNC(=O)C(C)c2cn(C)c3ccc(O)cc23)c1` (stereo not shown) [example compound 8, 2-(5-hydroxy-1-methyl-1H-indol-3-yl)-N-((2-(m-tolyl)-6-(trifluoromethyl)pyridin-3-yl)methyl)propanamide], for which the Ki stood at 1.4 nM. `CC(C(=O)NCc1ccc(C(F)(F)F)nc1C1CCOCC1)c1cn(C)c2ccc(O)cc12` (stereo not shown) [example compound 9, 2-(5-hydroxy-1-methyl-1H-indol-3-yl)-N-((2-(tetrahydro-2H-pyran-4-yl)-6-(trifluoromethyl)pyridin-3-yl)methyl)propanamide] returned a Ki of 45.7 nM. On the same count and under the same terms, the result for `COc1ccc2c(c1)c(CC(=O)NCc1ccc(C(F)(F)F)nc1N1CCC(C)CC1)cn2C` [example compound 2, 2-(5-methoxy-1-methyl-1H-indol-3-yl)-N-((2-(4-methylpiperidin-1-yl)-6-(trifluoromethyl)pyridin-3-yl)methyl)acetamide] reads 29.6 nM. On to `CC1CCN(c2nc(C(F)(F)F)ccc2CNC(=O)Nc2nc3c(Cl)cccc3s2)CC1` [example compound 23, 1-(4-chlorobenzo[d]thiazol-2-yl)-3-((2-(4-methylpiperidin-1-yl)-6-(trifluoromethyl)pyridin-3-yl)methyl)urea], for which, where the note is “ne = did not show any effect in this assay, pAG = partial agonist”, the “TRPV1 human (f) CAP, result in words” value was “ne”.

Regarding `CCNc1nc(C(F)(F)F)ccc1CNC(=O)C(C)c1cn(C)c2ccc(O)cc12` (stereo not shown) [example compound 4, N-((2-(ethylamino)-6-(trifluoromethyl)pyridin-3-yl)methyl)-2-(5-hydroxy-1-methyl-1H-indol-3-yl)propanamide], the affinity, expressed as Ki, was 44.2 nM. Turning to `COCCOCc1nc(C(F)(F)F)ccc1CNC(=O)C(C)c1cn(C)c2ccc(O)cc12` (stereo not shown) [example compound 15, 2-(5-hydroxy-1-methyl-1H-indol-3-yl)-N-((2-((2-methoxyethoxy)methyl)-6-(trifluoromethyl)pyridin-3-yl)methyl)propanamide], the inhibition at 5 µM under setting [1] turned out to be 15%. Compound `CC(C(=O)NCc1ccc(C(F)(F)F)nc1N1CCOCC1)c1cn(C)c2ccc(O)cc12` (stereo not shown) [example compound 10, 2-(5-hydroxy-1-methyl-1H-indol-3-yl)-N-((2-morpholino-6-(trifluoromethyl)pyridin-3-yl)methyl)propanamide] came in with a Ki of 29.3 nM. On to `CCNc1nc(C(F)(F)F)ccc1CNC(=O)Cc1cn(C)c2ccc(OC)cc12` [example compound 17, N-((2-(ethylamino)-6-(trifluoromethyl)pyridin-3-yl)methyl)-2-(5-methoxy-1-methyl-1H-indol-3-yl)acetamide], for which the inhibition at 1 µM (@ 1 µM compound, capsaicin (CAP) stimulus, relative to maximum achievable inhibition with 10 µM capsazepine, read-out: TRPV1 human (f) CAP, inhibition (in %)) came out at 0%. For the same compound, the inhibition at 5 µM under setting [1] was 35%. Compound `CC1CCN(c2nc(C(F)(F)F)ccc2CNC(=O)Nc2nc3ccccc3s2)CC1` [example compound 25, 1-(benzo[d]thiazol-2-yl)-3-((2-(4-methylpiperidin-1-yl)-6-(trifluoromethyl)pyridin-3-yl)methyl)urea] yielded a Ki of 84.9 nM.

With `CC(C(=O)NCc1ccc(C(F)(F)F)nc1N1CCCCC1)c1cn(C)c2ccc(O)cc12` (stereo not shown) [example compound 13, 2-(5-hydroxy-1-methyl-1H-indol-3-yl)-N-((2-(piperidin-1-yl)-6-(trifluoromethyl)pyridin-3-yl)methyl)propanamide], the Ki worked out at 3.9 nM. This Ki is about 22-fold lower than that of the compound before.

Take `CC1CCN(c2nc(C(F)(F)F)ccc2CNC(=O)C(C)c2cn(C)c3ccccc23)CC1` (stereo not shown) [example compound 14, 2-(1-methyl-1H-indol-3-yl)-N-((2-(4-methylpiperidin-1-yl)-6-(trifluoromethyl)pyridin-3-yl)methyl)propanamide]: the affinity, expressed as Ki, was 53 nM. The compound `CC1CCN(c2nc(C(F)(F)F)ccc2CNC(=O)Cc2cn(C)c3ccc(O)cc23)CC1` [example compound 11, 2-(5-hydroxy-1-methyl-1H-indol-3-yl)-N-((2-(4-methylpiperidin-1-yl)-6-(trifluoromethyl)pyridin-3-yl)methyl)acetamide] yielded a Ki of 0.3 nM.

Broadly, the Ki is the equilibrium dissociation constant of an inhibitor or competing ligand from its target. Higher therefore signals weaker binding. Broadly, the inhibition is the percentage by which the read-out fell short of the control.
